8 substances from patent US11214803B2, “Modulators of YAP1 expression” (Ionis Pharmaceuticals, Inc., priority 2019, dated 2022) can be followed below.

Strand notation (5' to 3'): a small letter for the sugar, then the base; units joined by * are phosphorothioate-linked, units joined directly phosphodiester-linked; [ ] holds rarer units or linkages, { } end groups; capitals alone tell only the bases. k = constrained ethyl (cEt); [5mC] = 5-methylcytosine; d = 2'-deoxy (DNA)

Series [1] in a line: Tolerability in Balb/c mice, plasma chemistry markers (Example 10). Format: in vivo. The note with it: male Balb/c mice, 50 mg/kg subcutaneously twice a week for four weeks, day 26. As to the method: Balb/c mice were treated with modified oligonucleotides selected from studies described above and evaluated for changes in the levels of various plasma chemistry markers.
(§1) Groups of male Balb/c mice at 4-6 weeks of age (obtained from Taconic) were injected subcutaneously twice a week for four weeks (for a total of 8 treatments) with 50 mg/kg of modified oligonucleotides. One group of male Balb/c mice was injected with PBS. Mice were euthanized on day 26 post start of treatment (24 hours following the final administration).

The nature of series [2]: Tolerability in Balb/c mice, body and organ weights (Example 10). Format: in vivo. The conditions noted are these: 50 mg/kg subcutaneously twice a week for four weeks, end of study. As for the experimental part: as §1
Body weights of Balb/c mice were measured at the end of the study, and the average body weight for each group is presented in the table below. Modified oligonucleotides that caused any changes in organ weights outside the expected range for modified oligonucleotides were excluded from further studies.

Series [3] has as its system Yap1 mRNA. Kind of series: Dose-dependent inhibition of human Yap1 in A-431 cells (Example 6, 5,000 cells per well, RTS4814). The conditions noted are these: A-431 cells; for IC50: Yap1 mRNA, linear regression on a log/linear plot; for % UTC 148 nM / % UTC 444 nM / % UTC 1333 nM / % UTC 4000 nM: free uptake, approximately 48 hours, RTS4814. Format: cell-based. The procedure, abridged:
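A-431 cells (5,000/well) took up oligonucleotides by free uptake at various doses for about 48 h. Yap1 mRNA was measured by RT-PCR (RTS4814), normalised to RIBOGREEN total RNA and expressed as % untreated control; IC50 by linear regression on a log/linear plot.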

Series [4] concerns Yap1 mRNA. Kind of series: Dose-dependent inhibition of human Yap1 in A-431 cells (Example 7, 10,000 cells per well, RTS36584). The series is classed as cell-based. The conditions noted are these: free uptake; for Yap1 mRNA, % UTC: A-431 cells 10,000 cells per well, 48 hours. The procedure, abridged: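 Yap1 mRNA was expressed as percent of untreated control after normalization to total RNA (RIBOGREEN), and IC50 was derived by log/linear linear regression. The read-out used primer-probe set RTS36584 roughly 48 hours after free-uptake dosing of oligonucleotides into A-431 cells (10,000 cells/well).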

Series [5] concerns subcutaneous DEN carcinomas. Kind of series: Tumor volume in DEN-HCC model, in combination with a-PD1 antibody (Example 49). Format: in vivo, C57BL/6 mice. The note with it: DEN-HCC subcutaneous model, C57BL/6 mice. As to the method: N-nitrosodiethylamine (DEN) is administered at 25 mg/kg into 15 day old C57/BL6 mice. Carcinomas form 6 months post injection. After formation, carcinomas were then dissected from the liver and passaged subcutaneously into C57BL/6 male mice at 4-6 weeks of age to establish a subcutaneous model. For this experiment, mice were passaged with P8 subcutaneously established DEN carcinomas, rendering P9 for the duration of the experiment. Subcutaneous carcinomas are found to form at 4-6 weeks post implantation. Modified oligonucleotides 792169 (control compound) and 715491 (YAP-1 targeting modified oligonucleotide) were treated subcutaneously into groups of 7-8 mice at 10 mg/kg/week 5 times a week for 11 weeks (total of 55 doses). The PBS-only treated group and the control group were treated 5 times a week for 4 weeks (total of 20 doses). α-PD1 antibody (BioXCell) was treated intraperitoneally at 10 mg/kg/week twice a week for 4 weeks (total of 8 doses). F.D. refers to mice that were sacrificed because their tumor volume became too large.

As for “715582 (kG*kT*k[5mC]*dA*dA*dG*d[5mC]*d[5mC]*dT*dG*dT*d[5mC]*dT*kG*kG*kA; antisense) [compound 715582]”, in series [1], the “ALT (U/L)” value was 2460 U/L, the “AST (U/L)” value turned out to be 2320 U/L and the “TBIL” value was determined as 2.09 mg/dL. In series [2], the Kidney weight is reported as 0.38 g, the Liver weight is listed as 1.46 g, the Spleen weight came out at 0.16 g and the body weight stood at 22 g. Further, in series [3] (Table 54), the IC50 (usually the concentration that gives 50% inhibition) is more than 4 µM, the “% UTC 148 nM” value was 98 % UTC, the “% UTC 444 nM” value worked out at 63 % UTC and the “% UTC 1333 nM” value was found to be 93 % UTC. In addition, the “% UTC 4000 nM” value in series [3] (Table 54) is 70 % UTC.

In the case of “715558 (k[5mC]*kA*kG*dG*dA*dA*dG*dT*dT*dA*dT*dT*d[5mC]*kA*kG*k[5mC]; antisense) [compound 715558]”, in series [1], the “ALT (U/L)” value is 65 U/L, the “AST (U/L)” value is 91 U/L and the “TBIL” value amounted to 0.16 mg/dL. In addition, in series [2], the Kidney weight was determined as 0.38 g, the Liver weight was found to be 1.33 g, the Spleen weight was 0.12 g and the body weight was 22 g. Further, in series [3] (Table 54), the IC50 was more than 4 µM, the “% UTC 148 nM” value stood at 94 % UTC, the “% UTC 444 nM” value is 112 % UTC and the “% UTC 1333 nM” value is reported as 80 % UTC. Also, in series [3] (Table 54), the “% UTC 4000 nM” value turned out to be 66 % UTC.

Take “715557 (kG*kG*kA*dA*dG*dT*dT*dA*dT*dT*d[5mC]*dA*dG*k[5mC]*kA*kG; antisense) [compound 715557]”: in series [1], the “ALT (U/L)” value turned out to be 1755 U/L, the “AST (U/L)” value came to 2377 U/L and the “TBIL” value is recorded as 0.28 mg/dL. In series [2], this substance displayed a Kidney weight of 0.31 g, a Liver weight of 1.96 g, a Spleen weight of 0.12 g and a body weight of 21 g.

Regarding “715480 (kG*kG*kA*dA*dA*d[5mC]*d[5mC]*dA*dT*dT*dA*dT*dT*kA*k[5mC]*kT; antisense) [compound 715480]”, in series [1], the “ALT (U/L)” value was found to be 791 U/L, the “AST (U/L)” value was 439 U/L and the “TBIL” value is recorded as 0.15 mg/dL. In series [2], this substance came in with a Kidney weight of 0.34 g, a Liver weight of 1.64 g, a Spleen weight of 0.12 g and a body weight of 22 g. Also, in series [3] (Table 53), the IC50 is more than 4 µM, the “% UTC 148 nM” value was determined as 91 % UTC, the “% UTC 444 nM” value amounted to 79 % UTC and the “% UTC 1333 nM” value is on record as 67 % UTC. The “% UTC 4000 nM” value in series [3] (Table 53) was found to be 59 % UTC.

In the case of “715484 (kT*kA*k[5mC]*dT*d[5mC]*dT*dT*dT*dG*dG*dA*dA*dA*k[5mC]*k[5mC]*kA; antisense) [compound 715484]”, in series [1], the “ALT (U/L)” value was 116 U/L, the “AST (U/L)” value stood at 110 U/L and the “TBIL” value came out at 0.15 mg/dL. Besides, in series [2], the Kidney weight turned out to be 0.37 g, the Liver weight turned out to be 1.47 g, the Spleen weight was determined as 0.13 g and the body weight is on record as 22 g.

Take “715609 (kT*kG*kT*dG*dT*dA*dG*dG*d[5mC]*dT*dG*dA*d[5mC]*kT*kT*kA; antisense) [compound 715609]”: in series [1], the “ALT (U/L)” value was found to be 1120 U/L, the “AST (U/L)” value was 2941 U/L and the “TBIL” value is on record as 0.67 mg/dL. In series [2], this substance came in with a Kidney weight of 0.33 g, a Liver weight of 2.64 g, a Spleen weight of 0.10 g and a body weight of 21 g.

For “715593 (kA*kT*kT*dT*d[5mC]*dT*dT*dT*dG*dG*d[5mC]*dA*dG*kA*kG*kA; antisense) [compound 715593]”, in series [1], the “ALT (U/L)” value came out at 628 U/L, the “AST (U/L)” value is reported as 610 U/L and the “TBIL” value is listed as 0.11 mg/dL. In addition, in series [2], the Kidney weight is listed as 0.30 g, the Liver weight was 1.12 g, the Spleen weight worked out at 0.13 g and the body weight was 19 g.

Take “715491 (kA*kA*k[5mC]*d[5mC]*dA*dA*d[5mC]*dT*dA*dT*dT*dA*d[5mC]*kT*kT*k[5mC]) [compound 715491]”: the “Yap1 mRNA, % UTC” value is 92 % UTC in series [4] (Table 56, 15.6 nM); 83 % UTC in series [4] (Table 56, 62.5 nM); 28 % UTC in series [4] (Table 56, 4000.00 nM). This substance showed an IC50 in series [4] (Table 56, A-431 cells 10,000 cells per well) of 0.27 µM. Besides, the “ALT (U/L)” value in series [1] is reported as 33 U/L. Moreover, the “AST (U/L)” value in series [1] was 48 U/L. Further, the “TBIL” value in series [1] is 0.11 mg/dL. The Kidney weight in series [2] stood at 0.32 g. Further, the Liver weight in series [2] was found to be 1.03 g. Further, the Spleen weight in series [2] came to 0.12 g. In addition, in series [2], the body weight is 22 g. In addition, the “Average Tumor Volume” value in series [5] (day 1 on treatment) is 356 mm3; in series [5] (day 5 on treatment), 417 mm3; in series [5] (day 8 on treatment) it was 463 mm3; in series [5] (day 11 on treatment), 461 mm3; in series [5] (day 15 on treatment), 523 mm3; in series [5] (day 18 on treatment), 526 mm3. Besides, the “Average Tumor Volume” value in series [5] (day 23 on treatment) is given as 658 mm3; in series [5] (day 25 on treatment) it was 659 mm3; in series [5] (day 28 on treatment), 661 mm3; in series [5] (day 31 on treatment), 740 mm3; in series [5] (day 35 on treatment), 798 mm3; in series [5] (day 38 on treatment) it was 741 mm3. Besides, the “Average Tumor Volume” value in series [5] (day 43 on treatment) stood at 723 mm3; in series [5] (day 45 on treatment) it was 741 mm3; in series [5] (day 49 on treatment), 765 mm3; in series [5] (day 54 on treatment), 780 mm3; in series [5] (day 58 on treatment), 852 mm3; in series [5] (day 61 on treatment), 925 mm3. Besides, the “Average Tumor Volume” value in series [5] (day 65 on treatment) is on record as 896 mm3; in series [5] (day 68 on treatment), 940 mm3; in series [5] (day 72 on treatment), 953 mm3; in series [5] (day 75 on treatment), 985 mm3; in series [5] (day 79 on treatment), 960 mm3.
